Laboratory results as given in US12187759B2, “TLR7 agonists” (Primmune Therapeutics, Inc., priority 2019, dated 2025).
Read-outs that look alike come from different tables or passages of the source.

Legend:
[1] = system: hPBMCs (Human Peripheral Blood Mononuclear Cells); test: Induction of interferon-α in hPBMCs in vitro; format: cell-based; conditions: for Emax / minimal effective concentration: Homo sapiens, PBMC; for Emax: 24 h, peak IFNα2a as percentage of peak response of standard 2-Amino-7-(cyclopropylmethyl)-9-B-D-xylofuranosyl-7,9-dihydro-1H-purine-6,8-dione, averaged across donors, read-out: IFNrmax, Relative Maximal IFNα2a Production (%); for minimal effective concentration: minimal effective concentration for interferon-α production (generally at least 80 pg/ml above baseline), geometric mean across at least three donors, 24 hours, read-out: Weighted MEC; for Donor 1 IFNmax / Donor 2 IFNmax / Donor 3 IFNmax: maximum IFN at any concentration of the evaluated range; for Donor 2 MEC / Donor 1 MEC / Donor 3 MEC: interferon-α production
Description: Treatment of hPBMCs with a TLR7 agonist typically induces some production of interferon-α as well as lesser amounts of a variety of other cytokines and chemokines. A typical experiment uses hPBMCs isolated from a healthy donor and placed in replicate cell culture wells; typically 1.0-7.5×10^6 cells are placed in each well. A test compound is added and the cells are cultured for 24 hours at 37° C. in a humidified atmosphere containing 5% CO2 post-addition; untreated controls are included. Secreted interferon-α production is measured using an a multisubtype interferon-α ELISA kit like those from PBL Assay Sciences or specifically as IFNα2a as part of a panel of cytokines and chemokines using luminex methodologies.
The minimal effective concentration (MEC) is the minimum concentration in a dose response curve where a significant increase in interferon-α production (generally at least 80 pg/ml) is observed above baseline. MEC values for each compound are determined for at least three donors. The weighted MEC for each compound is the geometric mean of all individual MECs across all donors. Concentrations tested typically consist of a two-fold dilution series starting at 100 μM. In the calculation of weighted MEC, any individual MEC value greater the highest concentration tested is arbitrarily set to two times the highest concentration tested unless all MECs for a compound exceed this value. The maximal amount of IFNα2a for each donor is determined from dose dependence for each compound.
In order to normalize for variation in each hPBMC preparation, these values are first transformed by expressing as a percentage of peak response measured with a standard (2-Amino-7-(cyclopropylmethyl)-9-B-D-xylofuranosyl-7,9-dihydro-1H-purine-6,8-dione) and then averaging the results across all donors, this average referred to as IFNrmax.
IFNmax is the maximum amount of IFN observed at any concentration across the evaluated concentration range. MEC and IFNmax values for three select compound are shown for three donors (Table 3). The range of tested concentrations were 0.625-5 μM for Imiquimod, 3.125-100 μM for both Compound A and Compound 1, 12.5-100 μM for Compound 2.

human TLR7 = molecular target: T1, human TLR7 (Homo sapiens, UniProt Q9NYK1); test: TLR7 reporter cell assay (HEK293 cells stably expressing human TLR7 with NF-κB-driven SEAP reporter); format: cell-based; conditions: for EC50: fit of SEAP dose response, ymax from 28.5 μM resiquimod
T1 construct: host or cells: HEK293
T1 sequence (Q9NYK1 27-1049): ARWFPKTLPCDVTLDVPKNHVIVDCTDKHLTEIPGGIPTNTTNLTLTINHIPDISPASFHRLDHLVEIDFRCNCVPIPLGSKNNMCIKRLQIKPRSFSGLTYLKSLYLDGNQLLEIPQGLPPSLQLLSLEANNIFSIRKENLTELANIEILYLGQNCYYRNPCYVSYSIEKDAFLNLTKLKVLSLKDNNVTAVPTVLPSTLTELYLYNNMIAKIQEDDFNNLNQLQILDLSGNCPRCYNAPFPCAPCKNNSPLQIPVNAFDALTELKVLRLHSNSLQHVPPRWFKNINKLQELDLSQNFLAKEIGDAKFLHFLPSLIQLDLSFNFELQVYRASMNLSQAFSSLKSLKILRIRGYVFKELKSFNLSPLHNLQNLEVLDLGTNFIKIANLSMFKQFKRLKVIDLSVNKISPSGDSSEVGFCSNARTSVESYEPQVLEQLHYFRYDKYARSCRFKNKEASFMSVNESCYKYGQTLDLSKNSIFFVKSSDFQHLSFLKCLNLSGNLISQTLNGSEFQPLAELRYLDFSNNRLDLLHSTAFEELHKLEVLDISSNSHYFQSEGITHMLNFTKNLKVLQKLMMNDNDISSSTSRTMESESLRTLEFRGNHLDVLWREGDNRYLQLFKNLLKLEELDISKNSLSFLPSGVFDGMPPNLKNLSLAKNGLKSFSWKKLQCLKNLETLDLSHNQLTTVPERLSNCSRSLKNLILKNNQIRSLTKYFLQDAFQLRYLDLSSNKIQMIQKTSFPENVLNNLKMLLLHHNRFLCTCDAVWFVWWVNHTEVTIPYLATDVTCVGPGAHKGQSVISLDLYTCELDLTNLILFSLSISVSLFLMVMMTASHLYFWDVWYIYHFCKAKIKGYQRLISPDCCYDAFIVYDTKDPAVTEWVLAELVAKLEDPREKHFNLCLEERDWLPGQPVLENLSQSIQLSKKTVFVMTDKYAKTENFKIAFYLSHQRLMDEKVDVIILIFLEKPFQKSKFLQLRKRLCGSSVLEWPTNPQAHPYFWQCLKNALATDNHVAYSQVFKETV
Excerpt: The engagement of TLRs by cognate ligands triggers downstream signaling cascades, leading to the activation of NF-κB and other transcription factors which initiate various immunomodulatory effects. The human embryonic kidney cell line, HEK293, is essentially non-responsive to TLR agonists, but ectopic expression of TLRs in these cells allows cognate agonists to activate endogenous NF-κB. Accordingly, the HEK293-TLR-NF-κB inducible reporter system is used to assay TLR agonists.
HEK293 cell lines stably expressing human TLR7 or TLR8 together with an NF-κB-driven-secreted alkaline phosphatase (SEAP) reporter were invented at InvivoGen (San Diego, California, USA) and used to assess compounds of the present invention for TLR7 and TLR8 agonist activities. Cells were seeded at 2-5×10^4 cells/well in 96 well plates (200 μl/well) and treated with various concentrations of compound (10 μl) for 15-24 hours. SEAP activity was determined by measuring OD at 650 nm; the media used to culture the cell lines contains the reagents required for SEAP detection. The EC50 values in Table 1 are calculated from fitting the dose response of measured SEAP activity for each compound to the following equation: Y=ymax*c^nh/(EC50^nh+c^nh)+blank where Y is the experimentally measured OD650 at concentration c of test article, blank is the observed OD650 in the absence of TLR7 agonist, ymax is the difference between the measured OD650 in the presence of 28.5 μM resiquimod and the blank and values of EC50 and nh are determined by nonlinear least squares analysis. Resiquimod is a known TLR7 and TLR8 agonist.
Compound A is 5-amino-3-((2R,3R,5S)-3-hydroxy-5-((S)-1-hydroxypropyl)tetrahydrofuran-2-yl)thiazolo[4,5-d]pyrimidine-2,7(3H,6H)-dione)

[2] = HEK293, 500 μM compound, SEAP activity (OD 650 nm) relative to 28.5 μM resiquimod, 15-24 hours, read-out: Response at 500 μM Compound as a Percent of Resiquimod Response
[3] = HEK293, read-out: Response at 500 μM Compound as a Percent of Resiquimod Response

## CC[C@H](O)[C@@H]1C[C@@H](O)[C@H](n2c(=O)n(C[C@@H](C)O)c3c(=O)[nH]c(N)nc32)O1 (single isomer, unassigned) [Compound 33]
[1]
  Emax: 143%
  minimal effective concentration: 9.9 µM
Human TLR7; [2]
  Emax at 500 µM: 73%
Human TLR7; 15-24 hours
  EC50: 287 µM

## CC[C@H](O)[C@@H]1C[C@@H](O)[C@H](n2c(=O)n(C[C@H](C)O)c3c(=O)[nH]c(N)nc32)O1 (single isomer, unassigned) [Compound 34]
[1]
  Emax: 272%
  minimal effective concentration: 1.6 µM
Human TLR7; [2]
  Emax at 500 µM: 81%
Human TLR7; 15-24 hours
  EC50: 137 µM

## C#CCn1c(=O)n([C@@H]2O[C@H]([C@@H](O)CC)C[C@H]2O)c2nc(N)[nH]c(=O)c21 [Compound 1, 2-amino-9-((2R,3R,5S)-3-hydroxy-5-((S)-1-hydroxypropyl)tetrahydrofuran-2-yl)-7-(prop-2-yn-1-yl)-7,9-dihydro-1H-purine-6,8-dione]
[1]
  Donor 1 IFNmax: 3775 pg/mL
  Donor 2 MEC: 6.25 µM
  Donor 2 IFNmax: 2129 pg/mL
  Donor 3 IFNmax: 5623 pg/mL
  Emax: 316%
  minimal effective concentration: ≤ 2.9 µM
[1]; donor 1
  IFNmax of Compound 1 relative to Compound A: 3.6 fold
  IFNmax of Compound 1 relative to imiquimod: 4.8 fold
[1]; donor 2
  IFNmax of Compound 1 relative to Compound A: 4.4 fold
  IFNmax of Compound 1 relative to imiquimod: 11.0 fold
[1]; donor 3
  IFNmax of Compound 1 relative to Compound A: 2.5 fold
  IFNmax of Compound 1 relative to imiquimod: 4.2 fold
[1]; in every case (Donors 1, 2 and 3)
  potency (MEC) of Compound 1 relative to Compound 2: ≥ 16 fold
Human TLR7; [2]
  Emax at 500 µM: 67%
Human TLR7; 15-24 hours
  EC50: 103 µM

## C#CCn1c(=O)n([C@@H]2O[C@H]([C@H](O)CC)C[C@H]2O)c2nc(N)[nH]c(=O)c21 [Compound 2, 2-amino-9-((2R,3R,5S)-3-hydroxy-5-((R)-1-hydroxypropyl)tetrahydrofuran-2-yl)-7-(prop-2-yn-1-yl)-7,9-dihydro-1H-purine-6,8-dione]
[1]
  Donor 1 MEC: 50 µM
  Donor 1 IFNmax: 4523 pg/mL
  Donor 2 MEC: >100 µM
  Donor 2 IFNmax: 9 pg/mL
  Donor 3 MEC: 100 µM
  Donor 3 IFNmax: 3110 pg/mL
Human TLR7; [3]
  Emax at 500 µM: < 5%

## C=C=Cn1c(=O)n([C@@H]2O[C@H]([C@H](O)CC)C[C@H]2O)c2nc(N)[nH]c(=O)c21 [Compound 3, 2-amino-9-((2R,3R,5S)-3-hydroxy-5-((R)-1-hydroxypropyl)tetrahydrofuran-2-yl)-7-(propa-1,2-dien-1-yl)-7,9-dihydro-1H-purine-6,8-dione]
Human TLR7; [3]
  Emax at 500 µM: < 5%

## C#CCn1c(=O)n([C@@H]2O[C@H]([C@@H](O)C(F)(F)F)C[C@H]2O)c2nc(N)[nH]c(=O)c21 [Compound 10, 2-Amino-9-((2R,3R,5S)-3-hydroxy-5-((R)-2,2,2-trifluoro-1-hydroxyethyl)tetrahydrofuran-2-yl)-7-(prop-2-yn-1-yl)-7,9-dihydro-1H-purine-6,8-dione]
Human TLR7; [3]
  Emax at 500 µM: 72%
Human TLR7; 15-24 hours
  EC50: 311 µM

## C#CCn1c(=O)n([C@@H]2O[C@H]([C@H](O)C(F)(F)F)C[C@H]2O)c2nc(N)[nH]c(=O)c21 [Compound 11, 2-Amino-9-((2R,3R,5S)-3-hydroxy-5-((S)-2,2,2-trifluoro-1-hydroxyethyl)tetrahydrofuran-2-yl)-7-(prop-2-yn-1-yl)-7,9-dihydro-1H-purine-6,8-dione]
Human TLR7; [3]
  Emax at 500 µM: < 5%

## C#CCn1c(=O)n([C@@H]2O[C@H]([C@H](O)CC)[C@H](F)[C@H]2O)c2nc(N)[nH]c(=O)c21 [Compound 12, 2-Amino-9-((2R,3S,4R,5R)-4-fluoro-3-hydroxy-5-((R)-1-hydroxypropyl)tetrahydrofuran-2-yl)-7-(prop-2-yn-1-yl)-7,9-dihydro-1H-purine-6,8-dione]
Human TLR7; [3]
  Emax at 500 µM: 6%
Human TLR7; 15-24 hours
  EC50: > 500 µM

## C#CCn1c(=O)n([C@@H]2O[C@H](C(=O)CC)C[C@H]2O)c2nc(N)[nH]c(=O)c21 [Compound 37, 2-Amino-9-((2R,3R,5S)-3-hydroxy-5-propionyltetrahydrofuran-2-yl)-7-(prop-2-yn-1-yl)-7,9-dihydro-1H-purine-6,8-dione]
Human TLR7; [3]
  Emax at 500 µM: 40%
Human TLR7; 15-24 hours
  EC50: 462 µM

## C#CCn1c(=O)n([C@@H]2O[C@@H](C(=O)CC)C[C@H]2O)c2nc(N)[nH]c(=O)c21 [Compound 38, 2-Amino-9-((2R,3R,5R)-3-hydroxy-5-propionyltetrahydrofuran-2-yl)-7-(prop-2-yn-1-yl)-7,9-dihydro-1H-purine-6,8-dione]
Human TLR7; [3]
  Emax at 500 µM: < 5%

## C#CCn1c(=O)n([C@@H]2O[C@H](CO)[C@@H](F)[C@H]2O)c2nc(N)[nH]c(=O)c21 [Compound B, 2-Amino-9-((2R,3S,4S,5R)-4-fluoro-3-hydroxy-5-(hydroxymethyl)tetrahydrofuran-2-yl)-7-(prop-2-yn-1-yl)-7,9-dihydro-1H-purine-6,8-dione, reference compound]
[1]
  Emax: 260%
  minimal effective concentration: 17.9 µM

## CC(C)Cn1cnc2c(N)nc3ccccc3c21 [Imiquimod, reference compound]
[1]
  Donor 1 MEC: 5 µM
  Donor 1 IFNmax: 793 pg/mL
  Donor 2 MEC: 5 µM
  Donor 2 IFNmax: 193 pg/mL
  Donor 3 MEC: 1.25 µM
  Donor 3 IFNmax: 1350 pg/mL
